Assay results: patent US12729194B2, “Compounds for the treatment of human immunodeficiency virus” (priority 2019, dated 2026)

Columns and labels:
[1] = tested on: envelope glycoproteins of the amphotropic murine leukemia virus (AMLV); assay: microbe, parasite or virus in culture; type: cell-based; conditions: Cf2Th-CD4/CCR5 target cells, 48 hours, luciferase, specificity control, read-out: 50% inhibitory concentration (IC50), AMLV
[2] = tested on: HIV-1 with JR-FL S375W Env; type: cell-based; conditions: Cf2Th-CD4/CCR5 target cells, 48 hours, luciferase; read-out: 50% inhibitory concentration (IC50), JR-FL S375W
[3] = tested on: VLP HIV-1AD8 Env; assay: Antibody recognition of VLP-associated Env
Method: Characterization of VLP-associated Env: To prepare VLPs with HIV-1AD8 Env, 150-mm dishes of 30-40% confluent A549-Gag/Env cells were seeded and, on the following day, treated with 2 μg/ml doxycycline. Approximately 72 hours after induction, cell supernatants were harvested and cleared by low-speed centrifugation (500×g for 15 minutes at 4° C.) and 0.45-μ filtration. VLPs were pelleted by centrifugation at 100,000×g for one hour at 4° C. The resuspended VLP preparation was clarified by low-speed centrifugation. BMS-806 and compounds described herein were added to the clarified VLP-containing suspensions. In some cases, the VLP-compound mixtures were irradiated with a 100-watt, 365-nm ultraviolet (UV) lamp for 10 minutes at room temperature. For all UV studies, exposure of the samples to visible light was minimized.
For studies of the binding of ligands (antibodies, CD4-Ig and C34-Ig) to detergent-solubilized VLP Env, VLPs prepared as described above were pelleted (20,000×g for 30 minutes at 4° C.). The pellet was incubated with 1.5% Triton X-100 for 30 minutes at 4° C. The VLP lysates were centrifuged (20,000×g for 30 minutes at 4° C.) and the supernatants were incubated with ligands (10 μg/ml) in a 50-μl volume with 25 mg/ml of Protein A-Sepharose beads for one hour at 4° C. The beads were pelleted (1000 rpm for 1 minute at room temperature), washed three times with 1 ml wash buffer with 1% Triton X-100, suspended in LDS Sample Buffer and analyzed by Western blot, as described above.
In a second assay format, the effect of the compounds was analyzed on the binding of antibodies to Env on intact VLPs, in the absence of detergent. In this case, VLPs in A549-Gag/Env supernatants, clarified as described above, were pelleted at 100,000×g for one hour at 4° C. The pellet was resuspended in PBS and the VLPs pelleted at 20,000×g for 30 minutes at 4° C. The VLPs were resuspended in PBS and incubated with antibodies (10 μg/ml) in a 100-μl volume for one hour at 4° C. The VLPs were then pelleted (20,000×g for 30 minutes at 4° C.) and washed with PBS three times. The VLP pellet was then solubilized in 1.5% Triton X-100 for 30 minutes at 4° C., after which the VLP lysates were clarified by centrifugation at 20,000×g for 30 minutes at 4° C. The supernatants were incubated with 50 μl of Protein A-Sepharose beads for one hour at 4° C. The beads were pelleted (1000 rpm for 1 minute at room temperature), washed three times with 1 ml wash buffer with 1% Triton X-100, suspended in LDS Sample Buffer, and analyzed by Western blot, as described above.

[4] = tested on: HIV-1JR-FL Env on virions; assay: Single-molecule FRET of virion Env; conditions: saturating concentration (100 μM)
Method: Single-molecule fluorescence resonance energy transfer (smFRET): Viruses with HIV-1JR-FL Env that is double-tagged at V1-Q3 and V4-A1 were prepared for smFRET imaging, as described in Munro, Science 346, 759-763 (2014). The high (40:1) ratio of wild-type Env to tagged Env ensures that, on average, only one tagged protomer is available for imaging on a single virus particle. The Q3 and A1 double-tagged viruses allowed the incorporation of Cy3B and Cy5 fluorescent labels, respectively. Thus, the relative movements of the V1 and V4 regions in one gp120 subunit of an individual Env trimer could be monitored in real time. The smFRET images were acquired on an in-house-built total internal reflection fluorescent microscope, as described in Munro. HIV-1JR-FL viruses incubated with saturating concentrations (100 μM) of AEG-II-168 or control HIV-1JR-FL viruses without compound were used for smFRET imaging. Data were analyzed with the customized MATLAB (Mathworks) program SPARTAN as described in Juette, Nat Methods 13, 341-344 (2016). FRET trajectories meeting the criteria of quality (sufficient signal:noise ratio, single dye photobleaching, anti-correlated features between donor and acceptor intensity and fluorescence lifetime) were compiled into FRET histograms. Hidden Markov modeling was used to fit the FRET histograms with the sum of three Gaussian distributions. […]

[5] = tested on: monomeric soluble HIV-1AD8 gp120; assay: Antibody recognition of monomeric gp120; type: binding; conditions: 10 μM; CD4-Ig, CD4BS bNAbs, 17b
Method: Antibody recognition of monomeric gp120: To produce gp120 monomers, a stop codon was introduced into the HIV-1AD8 env gene sequence encoding the gp120-gp4l junction. […] The supernatants were clarified by low-speed centrifugation and 0.45-μ filtration, and then used for precipitation by antibodies in the absence or presence of 10 μM BMS-806. Precipitates were Western blotted with a goat anti-gp120 polyclonal antibody (ThermoFisher) and 1:3000 HRP-conjugated rabbit anti-goat IgG antibody (ThermoFisher).

Structure (SMILES)	IC50 [1] [nM]	IC50 [2] [nM]	VLP Env recognition by poorly neutralizing antibodies two weeks after treatment ([3]; compound plus UV irradiation, washed, two weeks without compound)	VLP Env recognition by bNAbs two weeks after treatment ([3]; compound plus UV irradiation, PG9, PGT145, PGT151, 35022, 2F5, 4E10, 10E8)	Virion Env conformational state by smFRET [4]	Ligand binding to monomeric gp120 [5]	Recognition of VLP Env by poorly neutralizing antibodies [3]	Recognition of mature VLP gp120 Env by quaternary-epitope bNAbs ([3]; PG9, PG16, PGT145, PGT151, 35O22)
COc1ccc(-c2ccc(CNC(=O)c3c(F)c(F)c(N=[N+]=[N-])c(F)c3F)o2)c2[nH]cc(C(=O)C(=O)N3CCN(C(=O)c4ccccc4)CC3)c12 [AEG-II-168]	> 100	> 100	lowered Env recognition by poorly neutralizing antibodies	increased recognition by several bNAbs	maintained a State-1-dominant conformation	–	–	–
COc1ccnc2[nH]cc(C(=O)C(=O)N3CCN(C(=O)c4ccccc4)C[C@H]3C)c12 [BMS-806, reference compound]	> 100	> 100	–	–	–	mildly decreased gp120 binding	reduced recognition of the uncleaved Env	enhanced the recognition of the mature gp120 Env
